Tests used:
human recombinant PDI = molecular target: T1, human recombinant PDI (Homo sapiens, UniProt P07237); assay: GSAO-B labelling of purified protein, streptavidin-peroxidase blot; format: binding
T1 construct: made in house; host or cells: E. coli
Procedure: (§1) FIG. 14. Interaction of GSAO-B with PDI and thioredoxin. A Structure of GSAO-B. B Purified human recombinant PDI (5 μM), human recombinant thioredoxin (5 μM) or bovine serum albumin (5 ? M) was incubated with dithiothreitol (10 μM) for 60 minutes at room temperature to ensure that the active site disulfide(s) of PDI and thioredoxin were in the reduced dithiol form. GSAO-B (100 ? M) or GSAO-B and DMP (400 μM) was then added and the reactions incubated for 30 minutes at room temperature. The labelled PDI (lanes 1 and 2), thioredoxin (lanes 3 and 4) and albumin (lane 5) (75 pmoles) was resolved on […] SDS-PAGE, transferred to PVDF membrane, and blotted with streptavidin-peroxidase to detect the GSAO-B label. The positions of Mr markers are shown at left.
(§2) Human recombinant PDI and thioredoxin bound GSAO-B (FIG. 14). Recombinant human protein disulfide isomerase (PDI) was produced in E. coli and purified according to Jiang et al. (1999). In the experiment, purified PDI, thioredoxin or albumin as negative control were incubated with a 2-fold molar excess of dithiothreitol for 60 minutes to ensure that the active site disulfides of PDI and thioredoxin were in the reduced dithiol state. The proteins were then incubated with GSAO-B or GSAO-B and a 4-fold molar excess of DMP for 30 minutes. Equivalent moles of the labeled proteins were resolved on SDS-PAGE, transferred to PVDF membrane, and blotted with streptavidin-peroxidase to detect the GSAO-B label. Samples were resolved on 4-15% SDS-PAGE under non-reducing conditions (Laemmli, 1970) and transferred to PVDF membrane. Proteins were detected by Western blot using an anti-PDI murine monoclonal antibody (Jiang et al., 1999) (used at 2 μg per mL). Rabbit anti-mouse horseradish peroxidase conjugated antibodies (Dako Corporation, Carpinteria, Calif.) were used at 1:2000 dilution. GSAO-B-labeled proteins were blotted with streptavidin peroxidase (Amersham, Sydney, NSW) used at 1:1000 dilution. […] Chemiluminescence films were analysed using a GS-700 Imaging Densitometer and Multi-Analyst software (Bio-Rad, Hercules, Calif.).

Thioredoxin = molecular target: T2, Thioredoxin (Homo sapiens, UniProt P10599); assay: as above; format: binding; details: 100 μM GSAO-B, 5 μM protein, 30 minutes
T2 construct: purchased American Diagnostica, Greenwich, Conn; host or cells: E. coli
Procedure: as §1, §2

cell surface CD4 = molecular target: T3, cell surface CD4 (Homo sapiens, UniProt P01730); assay: Labelling of cell surface CD4 on CEM-T4 cells; format: cell-based; details: 100 μM, 30 min
T3 construct: host or cells: CEM-T4
Procedure: FIG. 32. Labelling of cell surface CD4 with GSAO-B. CEM-T4 were labelled with either MPB or GSAO-B. The biotin-labelled proteins were collected on streptavidin-agarose beads, resolved on 5-15% SDS-PAGE and Western blotted using Leu3a monoclonal antibody. Lane 1 is MPB-labelled CEM-T4 CD4 and lane 2 is GSAO-B-labelled CEM-T4 CD04. Lane 3 is a control experiment where GSAO-B was incubated with CEM-T4 cells in the presence of 400 μM DMP. Biotin-labelled proteins were from 2×10^6 cells. The positions of Mr markers in kDa are shown at left.
CEM-T4 cells were obtained from the NIH AIDS Research and Reference Reagent Program, Rockville, Mass., CEM-T4 (1 mL of 5×10^6 per mL in Hanks balanced salt solution) were incubated with either sulfosuccinimidobiotin (SSB), 3-(N-maleimidylpropionyl)biocytin (MPB), or GSAO-B (100 μM) for 30 min at room temperature SSB was from Pierce, Rockford, Ill. while MPB was from Molecular Probes, Eugene, Oreg.. Unreacted SSB was quenched with glycine (200 μM), while unreacted MPB was quenched with reduced glutathione (GSH, 200 μM) for 30 min at room temperature. The labelled cells were washed twice with PBS and sonicated in 1 mL of 50 mM Tris-HCl, 0.5 M NaCl, 1% (v/v) Triton X-100, 10 μM leupeptin, 10 μM aprotinin, 2 mM phenylmethylsulfonyl fluoride, 5 mM EDTA, pH 8.0 buffer at 4° C. […]
Labelled CD4 was detected by blotting with the Leu3a monoclonal antibody (FIG. 32).

HMEC-1 or HUVE cells = assay: GSAO-B labelling of endothelial cell surface proteins; format: cell-based, human
Procedure: FIG. 16. Identification of endothelial cell surface proteins that contain closely spaced dithiols). A The surface of HMEC-1 or HUVE cells (2×10^6 cells in 0.4 mL) was labelled with GSAO-B (100 μM) for 30 minutes at room temperature in the absence (lanes 1 and 3) or presence of DMP (400 μM) (lane 2). The endothelial cells were lysed and the lysate from both incubations was resolved on 4-15% SDS-PAGE, transferred to PVDF membrane, and blotted with streptavidin peroxidase to detect the GSAO-B label. The results represent labelling of 3×10^4 HMEC-1 (lanes 1 and 2) of HUVE cells (lane 3). The positions of Mr markers are shown at left. B Densitometry profile of the surface labelled proteins (lanes 1 and 3). The apparent Mr's of the individual proteins are indicated.
Human umbilical vein endothelial cells (HUVEC) (Wall et al., 1978) and the human dermal microvascular endothelial cell line, HMEC-1 (Ades et al., 1992), were harvested and cultured as indicated. Endothelial cells (5×10^6) were detached from culture flasks using 5 mM EDTA in PBS at 37° C., washed 3 times with PBS, resuspended in PBS containing 100 μM of GSAO-B in the absence or presence of 400 μM DMP, and incubated for 30 minutes at room temperature. The cells were washed 3 times with 1 mL of PBS, resuspended in 0.2 mL of ice cold 50 mM Tris/HCl, pH 8 buffer containing 0.5 M NaCl, 1% Triton X-100, 10 μM leupeptin, 2 mM PMSF (Sigma Chemical Company, St, Louis, Mo.), 5 mM EDTA and 10 μM aprotinin (Bayer Australia Ltd., Sydney, NSW), and sonicated on ice. On some occasions the cell lysates were incubated with streptavidin-agarose (Sigma, Castle Hill, NSW) beads (25 μL of packed beads in a total volume of 1 mL) for 60 minutes at 4° C. with rotary mixing. Bound proteins were washed 5 times with 50 mM Tris/HCl, pH 8 buffer containing 0.15 M NaCl and 0.05% Triton X-100, resolved on SDS-PAGE, transferred to PVDF membrane, and the GSAO-B-labeled proteins detected by Western blot.

bovine serum albumin = bovine serum albumin (Bos taurus, UniProt P02769); assay: GSAO-B labelling of purified protein, streptavidin-peroxidase blot (negative control protein); format: binding; details: 100 μM GSAO-B, 5 μM protein, 30 minutes
Procedure: as §1
Human recombinant PDI and thioredoxin bound GSAO-B (FIG. 14). Recombinant human protein disulfide isomerase (PDI) was produced in E. coli and purified according to Jiang et al. (1999). […] Proteins were detected by Western blot using an anti-PDI murine monoclonal antibody (Jiang et al., 1999) (used at 2 μg per mL). […] Chemiluminescence films were analysed using a GS-700 Imaging Densitometer and Multi-Analyst software (Bio-Rad, Hercules, Calif.).

PDI = assay: GSAO-B labelling of PDI on the endothelial cell surface; format: cell-based; details: 100 μM GSAO-B, 30 minutes
Procedure: FIG. 17. PDI was one of the GSAO-B labelled proteins on the endothelial cell surface. HUVEC (5×10^6 cells in 0.75 mL) were labelled with GSAO-B (100 μM) for 30 minutes at 37° C. in the absence (lanes 1) or presence of DMP (400 μM) (lane 2). The cells were lysed and incubated with streptavidin-agarose beads to collect the biotin-labelled proteins. The labelled proteins were resolved on 4-15% SDS-PAGE, transferred to PVDF membrane, and blotted with anti-PDI monoclonal antibodies. The results represent labelling of 5×10^6 endothelial cells. The positions of Mr markers are shown at left.
BAE cells were labeled with GSAO-B in the absence or presence of DMP, lysed and incubated with streptavidin-agarose beads to collect the biotin-labeled proteins. The labeled proteins were eluted from the beads, resolved on SDS-PAGE, transferred to PVDF membrane, and blotted with anti-PDI polyclonal antibodies.

[1] = Stability of the trivalent arsenicals towards oxidation; format: physicochemical; details: slowed by removal of O2, lower pH or glycine
Excerpt: This oxidation can be slowed in three ways; removal of dissolved O2 from solutions containing the arsenoxides, lowering the pH of these solutions, or by addition of glycine to the solutions. Glycine is routinely used to prevent oxidation of the stock solutions of the trivalent organoarsenicals. Similar to the reaction between 2,3-dimercaptopropanol and R—As(OH)2 in which a 5-membered dithioarsonite (XI) is formed, reaction of glycine with R—As(OH)2 is thought to give a 5-membered cyclic 1,3,2-oxazarsolidin-5-one (XII).

HIVIIIB = HIVIIIB entry into / infection of A3.01 cells, p24 antigen; format: cell-based, HIV; details: 100 μM, 30 minutes before virus
Procedure: FIG. 33. […] Cells were washed and incubated in complete medium at 5% CO2 and 37° C. for up to 10 days. […] B Concentration dependence of GSAO. […] Cells were washed, incubated in complete medium at 5% CO2 and 37° C. for 3 days and the conditioned medium collected and assayed for p24 antigen.
FIG. 34. Inhibition of HIVIIIB infection of A3.01 cells by GSAO.
A3.01 human T cells were exposed to GSAO for 30 minutes and then to HTLVIIIB virus for 2 hours after which the cells were washed and then cultured for up to 10 days. HTLVIIIB and A3.01 cells were obtained from the NIH AIDS Research and Reference Reagent Program, Rockville, Mass. Virus stocks were made and infectivity titer determined using A3.01 cells and the p24 antigen assay (Coulter, Miami, Fla.). A3.01 cells were cultured in RPMI medium containing 10% fetal calf serum. […] Cell numbers and cell viability were determined at the times specified by staining cells with trypan blue and counting using a Neubauer haemacytometer. Cell viability was measured as a percentage of live cells to total cells.

T1 sequence (P07237 18-508): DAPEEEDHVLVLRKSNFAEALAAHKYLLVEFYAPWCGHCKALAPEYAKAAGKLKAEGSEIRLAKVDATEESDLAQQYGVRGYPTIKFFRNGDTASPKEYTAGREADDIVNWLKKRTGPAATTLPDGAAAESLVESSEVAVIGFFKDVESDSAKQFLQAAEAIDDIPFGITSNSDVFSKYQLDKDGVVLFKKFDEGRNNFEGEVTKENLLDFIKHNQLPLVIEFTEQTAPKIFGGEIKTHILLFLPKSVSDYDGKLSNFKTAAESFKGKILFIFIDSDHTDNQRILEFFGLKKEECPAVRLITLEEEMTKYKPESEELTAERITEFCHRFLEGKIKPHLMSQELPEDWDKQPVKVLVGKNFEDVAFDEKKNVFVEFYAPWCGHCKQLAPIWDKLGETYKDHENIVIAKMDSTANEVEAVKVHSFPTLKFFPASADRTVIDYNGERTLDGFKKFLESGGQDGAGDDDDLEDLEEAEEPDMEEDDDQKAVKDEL
Chain of bovine serum albumin (P02769 25-607): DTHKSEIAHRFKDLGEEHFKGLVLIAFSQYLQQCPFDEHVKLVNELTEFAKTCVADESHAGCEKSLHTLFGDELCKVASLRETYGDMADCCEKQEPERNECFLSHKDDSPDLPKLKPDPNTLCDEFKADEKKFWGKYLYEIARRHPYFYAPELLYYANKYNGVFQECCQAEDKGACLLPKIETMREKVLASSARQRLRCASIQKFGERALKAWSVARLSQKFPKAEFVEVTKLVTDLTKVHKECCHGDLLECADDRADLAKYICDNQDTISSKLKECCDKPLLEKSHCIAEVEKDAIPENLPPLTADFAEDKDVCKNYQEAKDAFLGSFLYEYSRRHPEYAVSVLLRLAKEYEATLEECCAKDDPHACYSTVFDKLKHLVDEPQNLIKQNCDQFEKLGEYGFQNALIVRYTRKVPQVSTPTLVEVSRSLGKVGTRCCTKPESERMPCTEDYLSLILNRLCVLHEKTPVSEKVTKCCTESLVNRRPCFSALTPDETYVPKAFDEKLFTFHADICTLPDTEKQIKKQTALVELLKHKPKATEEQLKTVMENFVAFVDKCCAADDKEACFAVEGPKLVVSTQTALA
T2 sequence (P10599 whole entry): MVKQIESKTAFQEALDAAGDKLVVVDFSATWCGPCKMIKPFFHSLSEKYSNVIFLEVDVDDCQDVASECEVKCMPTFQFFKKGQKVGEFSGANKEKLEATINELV

Compound: 4-(N-(S-(N-(6-(N-(6-(N-(biotinoyl)amino)hexanoyl)amino)hexanoyl)glutathionyl)acetyl)amino)phenylarsenoxide [GSAO-B]
- incorporation of GSAO-B label (human recombinant PDI; 100 μM GSAO-B, 5 μM protein, 30 minutes): incorporated GSAO-B
- density of labeling of PDI relative to thioredoxin (human recombinant PDI; equivalent moles of protein): approximately twice that of thioredoxin
- incorporation of GSAO-B label (Thioredoxin): incorporated GSAO-B
- labelling of T cell surface CD4 (cell surface CD4): incorporated GSAO-B
- incorporation in the presence of DMP (HMEC-1 or HUVE cells; 100 μM GSAO-B with 400 μM DMP): effectively no incorporation of GSAO-B in the presence of DMP
- proteins on the endothelial cell surface that bind the compound (HMEC-1 or HUVE cells; 100 μM, 30 minutes): approximately ten proteins
- incorporation of GSAO-B label (bovine serum albumin): albumin did not
- labelling of cell surface PDI (PDI): PDI was one of the proteins on the endothelial cell surface that incorporated GSAO-B

Compound: O=[As]c1ccc(NC(=O)CBr)cc1 (stereo not shown) [BRAO, 4-(N-(bromoacetyl)amino)-phenylarsenoxide]
- stability of solutions towards oxidation [1]: deactivated over time by oxidation

Compound: O=C(CCCC[C@@H]1SC[C@@H]2NC(=O)N[C@@H]21)NCCCC[C@H](NC(=O)CCN1C(=O)C=CC1=O)C(=O)O [MPB, 3-(N-maleimidylpropionyl)biocytin, reference compound]
- inhibition of HIVIIIB entry (HIVIIIB): Inhibition of HIVIIIB entry

Source: patent publication US7498406B2, “Substantially cell membrane impermeable compound and use thereof” (priority 1999, dated 2009)
